“And” between values parts separate entries of the source, which are not always exact repeats. Equal entries are not always repeated.
Key:
[1] = test system: Proteus vulgaris KCTC 2433; test: Disc-paper clear zone test, antibacterial; type: cell-based; set-up: key: —: no clear zone; conditions: antibiotic 1 μg/disc; PV
From the text: (§1) For evaluation of the antibacterial activities, the following strains were used: Escherichia coli KCTC 1682, Proteus vulgaris KCTC 2433, Pseudomonas aeruginosa KACC 10186, and Salmonella typhimurium KCTC 1926, which are Gram-negative bacteria, and Staphylococcus aureus KCTC 1916, Staphylococcus epidermidis ATCC 12228, and Listeria monocytogenes KACC 10550, Bacillus subtilis KCTC 1924, which are Gram-positive bacteria. Meanwhile, for evaluation of the antifungal activities, Saccharomyces cerevisiae IF0 0233 and Candida albicans KCTC 1940 that causes Candidiasis fungal infection were used.
(§2) First, for evaluation of the antibacterial activities, each bacterial strain was inoculated into nutrient broth (Difco Co., USA) and cultured at 37° C. for 24 hours. Then, each strain was adjusted to an O.D.600 of 0.1, and then 100 μl of each strain was plated on a Petri dish (90 mm, Green Cross, Korea) containing nutrient agar (Difco Co., USA) medium, and 5 μl of each extract sample added to sterile disc-paper (6.5 mm diameter, Whatsman No. 2) was added to each strain which was then incubated at 37° C. for 24 hours. For evaluation of the antifungal activities, each fungal strain was cultured using Sabouraud dextrose (Difco Co. USA) at 30° C. for 24 hours in the same manner as described above, and the antifungal activity of each extract sample was evaluated by measuring the size of the clear zone. As a control, each of the antibacterial agent ampicillin and the antifungal agent miconazole (Sigma Co., USA) was at a concentration of 1 μg/disc. The size of the clear zone was measured by measuring, in units of mm, the diameter of the part where growth was invisible with the naked eye, and was expressed as a representative result after three or more evaluations.
(§3) The antimicrobial activities of the fraction of each of the Vespa velutina nigrithorax, V. simillima simillima Smith and V. mandarinia Smith extracts, prepared in Example 4, were measured according to the same method as the antibacterial and antifungal activity evaluation described in Example 3.

[2] = test system: Staphylococcus aureus KCTC 1916; test: Disc-paper clear zone test, antibacterial; type: cell-based; set-up: key: —: no clear zone; conditions: antibiotic 1 μg/disc; SA
From the text: as §1, §2, §3

[3] = test system: Salmonella typhimurium KCTC 1926; test: Disc-paper clear zone test, antibacterial; type: cell-based; set-up: key: —: no clear zone; conditions: antibiotic 1 μg/disc; ST
From the text: as §1, §2, §3

[4] = test system: Listeria monocytogenes KACC 10550; test: Disc-paper clear zone test, antibacterial; type: cell-based; set-up: key: —: no clear zone; conditions: antibiotic 1 μg/disc; LM
From the text: as §1, §2, §3

[5] = test system: Staphylococcus epidermidis ATCC 12228; test: Disc-paper clear zone test, antibacterial; type: cell-based; set-up: key: —: no clear zone; conditions: antibiotic 1 μg/disc; SE
From the text: as §1, §2, §3

[6] = test system: Escherichia coli KCTC 1682; test: Disc-paper clear zone test, antibacterial; type: cell-based; set-up: key: —: no clear zone; conditions: antibiotic 1 μg/disc; EC
From the text: as §1, §2, §3

[7] = test system: Pseudomonas aeruginosa KACC 10186; test: Disc-paper clear zone test, antibacterial; type: cell-based; set-up: key: —: no clear zone; conditions: antibiotic 1 μg/disc; PA
From the text: as §1, §2, §3

[8] = test system: Bacillus subtilis KCTC 1924; test: Disc-paper clear zone test, antibacterial; type: cell-based; set-up: key: —: no clear zone; conditions: antibiotic 1 μg/disc; BS
From the text: as §1, §2, §3

[9] = test system: Saccharomyces cerevisiae IF0 0233; test: Disc-paper clear zone test, antifungal; type: cell-based; set-up: key: —: no clear zone; conditions: antibiotic 1 μg/disc; SC
From the text: as §1, §2, §3

[10] = test system: Candida albicans KCTC 1940; test: Disc-paper clear zone test, antifungal; type: cell-based; set-up: key: —: no clear zone; conditions: antibiotic 1 μg/disc; CA
From the text: as §1, §2, §3

human erythrocytes = test: Human erythrocyte hemolytic activity; conditions: 37° C., 30 minutes
Description: In order to evaluate the acute toxicities of the Vespa velutina nigrithorax, V. simillima simillima Smith and V. mandarinia Smith extracts and the fractions thereof, the human erythrocyte hemolytic activities thereof were evaluated. At this time, the hemolytic activity was evaluated according to a previous report (Son Ho-Yong et al., 2014, Korean J. Microbiol. Biotechnol. 42: 285-292). Briefly, 100 μl of human erythrocytes were washed three times with PBS and added to a 96-well microplate, and 100 μl of a sample solution at various concentrations was added thereto and then allowed to react at 37° C. for 30 minutes. Thereafter, the reaction solution was centrifuged at 1,500 rpm for 10 minutes, and 100 μl of the supernatant was transferred to a fresh microtiter plate, and then the degree of hemoglobin leakage following hemolysis was measured at 414 nm. DMSO (2%) was used as a solvent control for the sample, and Triton X-100 (1 mg/ml) was used as an experimental control for hemolysis of erythrocytes. Hemolytic activity was calculated using the following equation.
(%) Hemolysis=[(Abs. S−Abs. C)/(Abs. T−Abs. C)]×100
Abs. S: absorbance of sample-added group
Abs. C: absorbance of DMSO-added group
Abs. T: absorbance of Triton X-100-added group

[11] = test system: gram-positive bacteria, gram-negative bacteria and fungi; test: Disc-paper clear zone test, summary over the whole panel; type: cell-based; conditions: 1 μg/disc; span over the gram-positive and gram-negative bacteria; read-out: Clear zone size
From the text: as §1
First, for evaluation of the antibacterial activities, each bacterial strain was inoculated into nutrient broth (Difco Co., USA) and cultured at 37° C. for 24 hours. […] For evaluation of the antifungal activities, each fungal strain was cultured using Sabouraud dextrose (Difco Co. USA) at 30° C. for 24 hours in the same manner as described above, and the antifungal activity of each extract sample was evaluated by measuring the size of the clear zone. […] The size of the clear zone was measured by measuring, in units of mm, the diameter of the part where growth was invisible with the naked eye, and was expressed as a representative result after three or more evaluations.

| Molecule | Clear zone [1] | Clear zone [2] | Clear zone [3] | Clear zone [4] | Clear zone [5] | Clear zone [6] | Clear zone [7] | Clear zone [8] | Clear zone [9] | Clear zone [10] | Human erythrocyte hemolytic activity (human erythrocytes; 0.0032 mg/ml) | Human erythrocyte hemolytic activity (human erythrocytes; 0.0063 mg/ml) | Human erythrocyte hemolytic activity (human erythrocytes; 0.0125 mg/ml) | Human erythrocyte hemolytic activity (human erythrocytes; 0.05 mg/ml) | Human erythrocyte hemolytic activity (human erythrocytes; 0.1 mg/ml) | Human erythrocyte hemolytic activity (human erythrocytes; 1.0 mg/ml) | zone of inhibition at 1 µg/disc [11] |
| --- | --- | --- | --- | --- | --- | --- | --- | --- | --- | --- | --- | --- | --- | --- | --- | --- | --- |
| Clc1ccc(COC(Cn2ccnc2)c2ccc(Cl)cc2Cl)c(Cl)c1 (stereo not drawn) [Miconazole, miconazole] | — | — | — | — | — | — | — | — | 8.5 mm | 8.5 mm |  |  |  |  |  |  |  |
| C[C@@H]1[C@H](O)[C@@H](C)/C=C/C=C/C=C/C=C/C=C/C=C/C=C/[C@H](O[C@@H]2O[C@H](C)[C@@H](O)[C@H](N)[C@@H]2O)C[C@@H]2O[C@](O)(C[C@@H](O)C[C@@H](O)[C@H](O)CC[C@@H](O)C[C@@H](O)CC(=O)O[C@H]1C)C[C@H](O)[C@H]2C(=O)O [Amphotericin B] |  |  |  |  |  |  |  |  |  |  | 6.5 ± 0.9% | 21.6 ± 3.7% | 48.2 ± 5.9% | 72.4 ± 5.2% | 95.8 ± 0.3% |  |  |
| Triton X-100 |  |  |  |  |  |  |  |  |  |  |  |  |  |  |  | 100% and 100.0 ± 0.1% |  |
| CC1(C)S[C@@H]2[C@H](NC(=O)[C@H](N)c3ccccc3)C(=O)N2[C@H]1C(=O)O [Ampicillin, ampicillin] | 30.0 mm | 26.0 mm | 20.0 mm | 26.0 mm | 20.0 mm | 9.0 mm | 16.0 mm | 23.5 mm | — | — |  |  |  |  |  |  | 9 to 30 mm |
